Results reported in patent publication US4841076A, “Benzopyran derivatives” (Daiichi Seiyaku Co., Ltd., priority 1986, dated 1989).

Key:
[1] = in words, literature; cited from earlier work
male rats [2] = experiment: Diuretic Activity and Natriuretic Activity; format: in vivo; settings: 300 mg/Kg, orally, urine collected for 5 hours, control value subtracted
Method: Male rats weighing 150 to 250 g were fasted overnight and, the next morning, orally administered with either (1) 25 ml/Kg of physiological saline (control group) or (2) a test compound which was suspended in 0.5 wt % carboxymethylcellulose. Urine after dosing was collected for 5 hours, and urinary volume and sodium concentration were measured. Each parameter was calculated by subtracting the value of the control group from that of the test group.

hypertensive rats = experiment: Antihypertensive Activity (DOCA/saline hypertensive rats, tail cuff); format: in vivo; settings: DOCA hypertensive rats, orally once a day, systolic pressure vs control
Method: Four-week-old male rats weighing 120 to 150 g were subcutaneously injected with DOCA (desoxycorticosterone acetate) and fed on a 1% saline solution to cause hypertension in accordance with the method of Seyle, et al. as described in American Heart Journal, Vol. 37, 1009 (1949). The test compound was orally administered to the hypertensive rats once a day for 4 weeks. The blood pressure of the animal was measured by a tail cuff method every one week from the start of the administration.
In Table 3, antihypertensive activity (ΔmmHg) was obtained by subtracting the systolic pressure of the test group from that of the control group.

male rats [3] = experiment: Uricosuric Activity (fractional excretion of uric acid); format: in vivo; settings: orally, 30 min urine from 60 min after dosing
Method: Male rats weighing 150 to 250 g were fasted overnight and, the next morning, orally administered with either (1) 25 ml/Kg of physiological saline (control group) or (2) a test compound which was suspended in 0.5 wt % carboxymethylcellulose. After 60 minutes from the administration of the test compound, urine over a period of 30 minutes was collected. Thereafter, blood was taken from the arotid artery under anesthesia, and uric acid concentrations in the urine and the serum were determined by the enzyme method. On the other hand, […] concentrations in the urine and the serum were determined by a Jaffe's method to obtain the fractional excretion of uric acid. Percent of uric acid excretion was calculated by dividing the value of fractional excretion in the test group by that in the control group.

Acute toxicity (LD50) = settings: rat, in vivo, po; P.O. in Rats
Description: The compound of the present invention has a low toxicity, and the acute toxicity (LD50) of typical compounds of formula (I) is shown in the following Table 4.

In the case of `CC1(c2ccccc2)Cc2cc(OCC(=O)O)c(Cl)c(Cl)c2C1=O` (centres unmarked) [indacrinone], the “diuretic, saluretic and uricosuric activities” value [1] is listed as “having diuretic and uricosuric activities”.
With `O=C(O)COc1cc(Cl)c2c(=O)c(-c3ccccc3Cl)coc2c1` [(c), {[5-Chloro-3-(2-chlorophenyl)-4-oxo-4H-1-benzopyran-7-yl]oxy}acetic acid] the “Increase in Urinary Na^+” value (male rats [2]) was 1015 ΔμEq, the “Increase in Urinary Output” value (male rats [2]) was 41.0 Δml/Kg and the “Antihypertensive Activity After 1 Week” value (hypertensive rats; 100 mg/Kg) was 13.6 ΔmmHg. The “Antihypertensive Activity After 2 Weeks” value (hypertensive rats; 100 mg/Kg) was 20.7 ΔmmHg, the “Antihypertensive Activity After 3 Weeks” value (hypertensive rats; 100 mg/Kg) was 29.3 ΔmmHg and the “% of Uric Acid Excretion” value (male rats [3]; 100 mg/Kg) was 36%. For the same compound, the LD50 (Acute toxicity (LD50)) was 1410 mg/kg.
For `O=C(O)COc1ccc(C(=O)c2cccs2)c(Cl)c1Cl` [Tienilic acid, [2,3-dichloro-4-(2-thenoyl)phenoxy]acetic acid, reference compound], the “diuretic, saluretic and uricosuric activities” value [1] is listed as “having diuretic and uricosuric activities”, the “Increase in Urinary Na^+” value (male rats [2]) is listed as 353.4 ΔμEq and the “Increase in Urinary Output” value (male rats [2]) is listed as 10.2 Δml/Kg. For the same compound, the “Antihypertensive Activity After 1 Week” value (hypertensive rats; 300 mg/Kg) was 23.6 ΔmmHg, the “Antihypertensive Activity After 2 Weeks” value (hypertensive rats; 300 mg/Kg) was 35.0 ΔmmHg and the “Antihypertensive Activity After 3 Weeks” value (hypertensive rats; 300 mg/Kg) was 44.3 ΔmmHg. The “% of Uric Acid Excretion” value (male rats [3]; 200 mg/Kg) was 38%.
With `O=C(O)COc1cc(Cl)c2c(=O)c(-c3ccccc3)coc2c1` [(a), [(5-Chloro-4-oxo-3-phenyl-4H-1-benzopyran-7-yl)oxy]acetic acid] the “Increase in Urinary Na^+” value (male rats [2]) was 1220 ΔμEq, the “Increase in Urinary Output” value (male rats [2]) was 51.8 Δml/Kg and the “Antihypertensive Activity After 1 Week” value (hypertensive rats; 100 mg/Kg) was 13.7 ΔmmHg. The “Antihypertensive Activity After 2 Weeks” value (hypertensive rats; 100 mg/Kg) was 37.0 ΔmmHg, the “Antihypertensive Activity After 3 Weeks” value (hypertensive rats; 100 mg/Kg) was 49.0 ΔmmHg and the “% of Uric Acid Excretion” value (male rats [3]; 100 mg/Kg) was 136%. For the same compound, the LD50 (Acute toxicity (LD50)) was 1020 mg/kg.
For `Cc1cc(OCC(=O)O)cc2occ(-c3ccccc3)c(=O)c12` [(b), [(5-Methyl-4-oxo-3-phenyl-4H-1-benzopyran-7-yl)oxy]acetic acid], the “Increase in Urinary Na^+” value (male rats [2]) was 987 ΔμEq, the “Increase in Urinary Output” value (male rats [2]) was 23.6 Δml/Kg and the “Antihypertensive Activity After 1 Week” value (hypertensive rats; 100 mg/Kg) was 10.0 ΔmmHg. For the same compound, the “Antihypertensive Activity After 2 Weeks” value (hypertensive rats; 100 mg/Kg) was 17.9 ΔmmHg, the “Antihypertensive Activity After 3 Weeks” value (hypertensive rats; 100 mg/Kg) was 15.0 ΔmmHg and the “% of Uric Acid Excretion” value (male rats [3]; 100 mg/Kg) was 66%. For the same compound, the LD50 (Acute toxicity (LD50)) was 936 mg/kg.
With `O=C(O)COc1cc(Cl)c2c(=O)c(Cc3ccccc3)coc2c1` [(e), [(3-Benzyl-5-chloro-4-oxo-4H-1-benzopyran-7-yl)oxy]acetic acid] the “Increase in Urinary Na^+” value (male rats [2]) was 967 ΔμEq, the “Increase in Urinary Output” value (male rats [2]) was 37.9 Δml/Kg and the “Antihypertensive Activity After 1 Week” value (hypertensive rats; 100 mg/Kg) was 6.2 ΔmmHg. For the same compound, the “Antihypertensive Activity After 2 Weeks” value (hypertensive rats; 100 mg/Kg) was 28.7 ΔmmHg, the “Antihypertensive Activity After 3 Weeks” value (hypertensive rats; 100 mg/Kg) was 39.4 ΔmmHg and the “% of Uric Acid Excretion” value (male rats [3]; 100 mg/Kg) was 39%.
For `Cc1ccccc1-c1coc2cc(OCC(=O)O)cc(Cl)c2c1=O` [(d), {[5-Chloro-3-(2-methylphenyl)-4-oxo-4H-1-benzopyran-7-yl]oxy}acetic acid], the “Increase in Urinary Na^+” value (male rats [2]) was 1196 ΔμEq, the “Increase in Urinary Output” value (male rats [2]) was 49.6 Δml/Kg and the “Antihypertensive Activity After 1 Week” value (hypertensive rats; 100 mg/Kg) was 12.1 ΔmmHg. For the same compound, the “Antihypertensive Activity After 2 Weeks” value (hypertensive rats; 100 mg/Kg) was 14.3 ΔmmHg, the “Antihypertensive Activity After 3 Weeks” value (hypertensive rats; 100 mg/Kg) was 15.7 ΔmmHg and the “% of Uric Acid Excretion” value (male rats [3]; 100 mg/Kg) was 56%.
